The values that follow come from ChEMBL document CHEMBL5032489, “Selective Discovery of GPCR Ligands within DNA-Encoded Chemical Libraries Derived from Natural Products: A Case Study on Antagonists of Angiotensin II Type I Receptor” (J Med Chem, 2021).

In data set [1] the target is T1, Type-1 angiotensin II receptor (Homo sapiens) (UniProt P30556).
T1 sequence (whole entry): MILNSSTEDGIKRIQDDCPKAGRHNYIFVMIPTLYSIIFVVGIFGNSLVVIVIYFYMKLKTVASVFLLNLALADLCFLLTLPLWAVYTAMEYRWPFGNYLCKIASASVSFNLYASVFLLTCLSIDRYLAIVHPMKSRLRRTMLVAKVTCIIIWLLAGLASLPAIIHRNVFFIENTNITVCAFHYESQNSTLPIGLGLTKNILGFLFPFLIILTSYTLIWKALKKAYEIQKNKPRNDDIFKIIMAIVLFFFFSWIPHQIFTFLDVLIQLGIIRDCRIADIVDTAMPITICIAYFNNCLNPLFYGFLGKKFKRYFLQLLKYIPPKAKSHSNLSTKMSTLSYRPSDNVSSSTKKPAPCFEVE
As to the kind of experiment: (§1) Displacement of [125-I]-[Sar1, AngII from AT1R (unknown origin) expressed in Escherichia coli BL 21 (DE3) incubated for 2 hrs by radioimmunoassay.

The target of data set [2] is T2, Type-1 angiotensin II receptor (Homo sapiens, UniProt P30556).
T2 sequence (P30556 whole entry): T1 sequence (whole entry)
Described as §1.

Data set [3] in a line: Cmax in two-kidney two clip renovascular hypertensive Sprague-Dawley rat model at 30 mg/kg, po by HPLC-MS/MS analysis. In kind it is ADME, organism-based. Further details: route oral, dose 30 mg/kg. The conditions noted are these: in vivo.
Data set [4] can be described thus: AUC (0-infinity) in two-kidney two clip renovascular hypertensive Sprague-Dawley rat model at 30 mg/kg, po by HPLC-MS/MS analysis. More on the design: route oral, time infinity, dose 30 mg/kg. It is filed as ADME, organism-based. The conditions noted are these: in vivo.
Data set [5] can be described thus: AUC (0-infinity) in two-kidney two clip renovascular hypertensive Sprague-Dawley rat model at 5 mg/kg, po by HPLC-MS/MS analysis. It is filed as ADME, organism-based. More on the design: route oral, time infinity, dose 5 mg/kg. The conditions noted are these: in vivo.
In data set [6] the test system is Rattus norvegicus. As to the kind of experiment: Antihypertensive activity against two-kidney two clip renovascular hypertensive Sprague-Dawley rat model assessed as decrease in diastolic blood pressure at 15 to 30 mg/kg, po measured after 4 days of treatment by noninvasive sphygmomanometry. Conditions: dose 15-30 mg/kg, time 4.0 day. It is filed as functional, organism-based.

Data set [7] is described as follows: Toxicity in two-kidney two clip renovascular hypertensive Sprague-Dawley rat model assessed as heart rate at 15 to 30 mg/kg, po measured after 4 days of treatment by noninvasive sphygmomanometry. In kind it is organism-based. The conditions noted are these: in vivo, 96 h, dose 15-30 mg/kg, time 4 day.
The nature of data set [8]: AUC (0-t) in two-kidney two clip renovascular hypertensive Sprague-Dawley rat model at 5 mg/kg, po by HPLC-MS/MS analysis. More on the design: dose 5 mg/kg. The conditions noted are these: in vivo. In kind it is ADME, organism-based.
Data set [9] can be described thus: AUC (0-t) in two-kidney two clip renovascular hypertensive Sprague-Dawley rat model at 30 mg/kg, po by HPLC-MS/MS analysis. In kind it is ADME, organism-based. Further details: dose 30 mg/kg. The conditions noted are these: in vivo.
A short description of data set [10]: Cmax in two-kidney two clip renovascular hypertensive Sprague-Dawley rat model at 5 mg/kg, po by HPLC-MS/MS analysis. In kind it is ADME, organism-based. Further details: route oral, dose 5 mg/kg. Conditions: in vivo.
Data set [11] is described as follows: AUC (0-t) in two-kidney two clip renovascular hypertensive Sprague-Dawley rat model at 15 mg/kg, po by HPLC-MS/MS analysis. More on the design: dose 15 mg/kg. The conditions noted are these: in vivo. It is filed as ADME, organism-based.
Data set [12] has as its target T2, Type-1 angiotensin II receptor. As to the kind of experiment: Binding affinity to AT1R (unknown origin) expressed in Escherichia coli strain BL 21 (DE3) incubated for 20 mins by SDS PAGE analysis.
Data set [13] in a line: AUC (0-infinity) in two-kidney two clip renovascular hypertensive Sprague-Dawley rat model at 15 mg/kg, po by HPLC-MS/MS analysis. Further details: time infinity, route oral, dose 15 mg/kg. In kind it is ADME, organism-based. Conditions: in vivo.
A short description of data set [14]: Cmax in two-kidney two clip renovascular hypertensive Sprague-Dawley rat model at 15 mg/kg, po by HPLC-MS/MS analysis. In kind it is ADME, organism-based. Further details: route oral, dose 15 mg/kg. Conditions: in vivo.
The subject of data set [15] is Rattus norvegicus. As to the kind of experiment: Antihypertensive activity against two-kidney two clip renovascular hypertensive Sprague-Dawley rat model assessed as decrease in systolic blood pressure at 15 to 30 mg/kg, po measured after 4 days of treatment by noninvasive sphygmomanometry. Conditions: dose 15-30 mg/kg, time 4.0 day. It is filed as functional, organism-based.

In data set [16] the test system is Rattus norvegicus. As to the kind of experiment: Antihypertensive activity against two-kidney two clip renovascular hypertensive Sprague-Dawley rat model assessed as decrease in systolic blood pressure at 8.3 mg/kg, po measured after 4 days of treatment by noninvasive sphygmomanometry. It is filed as functional, organism-based. Conditions: time 4.0 day.

SMILES strings stand for the structures. Calls of active or inactive are those of the source. The calls are words filed in the database; no cut-off is given here.

Turning to `NC[C@H](O)c1ccc(O)c(O)c1`, the result in data set [1] was inactive.
As usually defined, the IC50 is the point on the concentration scale where inhibition reaches its midpoint. Higher therefore signals lower potency. The compound `O=C(O)/C=C/c1ccc(O)c(O)c1` [CAFFEIC ACID] had a 50% inhibitory concentration (IC50) in data set [2] of 0.125 µM.
The term Cmax denotes the peak of the concentration-time curve. As a reminder, the AUC is the area under the concentration-time curve, a measure of exposure. A higher AUC goes with high exposure. By Kd is commonly meant the concentration at which binding is half-saturated. Higher therefore signals a looser complex. For the compound `CCOC(=O)[C@@H](Cc1ccc(F)cc1)NC(=O)[C@@H](CC1CCCCC1)NC(=O)[C@@H](C)NC(=O)/C=C/c1ccc(O)c(O)c1`, the Cmax in data set [3] was found to be 446 ng/mL; in data set [10], 80.6 ng/mL; in data set [14], 220 ng/mL. For the same compound, the AUC in data set [4] turned out to be 35096.1 µg·min/L; in data set [5], 6088 µg·min/L; in [13], 19332.5 µg·min/L. Moreover, the outcome with Rattus norvegicus [6] and in the data set with Rattus norvegicus [15] was Active. The Activity result in data set [7] was “Non-Toxic”. The AUCt worked out at 5707.6 µg·min/L in [8], 34243 µg·min/L in data set [9] and 18123.5 µg·min/L in data set [11]. Also, the half-maximal inhibitory concentration (IC50) in data set [2] turned out to be 0.0196 µM. Besides, binding in data set [12] was characterised by a dissociation constant (Kd) of 0.00049 µM.
`Cc1cc(Cn2cnc3c2C[C@@H](C(=O)O)N(C(=O)C(c2ccccc2)c2ccccc2)C3)ccc1N(C)C`: the outcome in [1] was inactive.
As to `CCCCC(=O)N(Cc1ccc(-c2ccccc2-c2nnn[nH]2)cc1)[C@H](C(=O)O)C(C)C`, the outcome in the data set on Rattus norvegicus [16] was Active.
